System: carbon tetrachloride-induced hepatic disorders
Test: Effect of inhibiting carbon tetrachloride-induced hepatic disorders
Assay type: in vivo
Conditions: male mice of dd strain, mean of 5 mice; for Hepatic Disorder index: 30 mg/kg orally in olive oil 6 hours before carbon tetrachloride 0.05 ml/kg orally, sacrificed 24 hours after, visual score 0 (healthy liver) to 6 (heavy disorder); for p-GPT(K.U.): plasma glutamic-pyruvic transaminase activity, Reitman-Frankel method, 30 mg/kg orally 6 hours before carbon tetrachloride 0.05 ml/kg orally, 24 hours after, values above 2,100 counted as 2,100
Procedure: Effect of inhibiting carbon tetrachloride-induced hepatic disorders A test compound was dissolved or suspended in olive oil and the resulting solution or suspension was orally administered to male mice (6 week age) of dd strain in a dose of 30 mg/kg. Six hours after the administration, carbon tetrachloride was orally administered to the mice in a dose of 0.05 ml/kg. The mice were sacrificed 24 hours after the administration of carbon tetrachloride. Degree of hepatic disorders was visually examined. On the other hand, blood was collected when they were sacrificed and plasma was obtained by centrifugation. Plasma glutamic-pyruvic transaminase (GPT) activity was determined according to the Reitman-Frankel method and the activity was expressed by Karmen Unit (K.U.). The hepatic disorder index is evaluated as below. [table] Five (5) mice were used in each group and the results are shown by a mean value. Further with respect to GPT activity, no further measurement was conducted with the case showing more than 2,100 units but for brevity, it was calculated as 2,100 units.

## CCN1CCN(C2SC(=C3C(=O)CC(C)(C)CC3=O)SC2OC(C)=O)CC1 (centres unmarked) [Compound No. 19]
  Hepatic Disorder index: 1.0
  p-GPT(K.U.): 297 K.U.

## CN(C)C1SC(=C2C(=O)CCCC2=O)SC1N(C)C (centres unmarked) [Compound No. 1, 2-((4,5-bis(dimethylamino)-1,3-dithiolan)-2-ylidene)-1,3-dioxocyclohexane]
  Hepatic Disorder index: 0.6
  p-GPT(K.U.): 17 K.U.

## CCC(=O)OC1SC(=C2C(=O)CCCC2=O)SC1N(C)C (centres unmarked) [Compound No. 7]
  Hepatic Disorder index: 0
  p-GPT(K.U.): 15 K.U.

## O=C1CCCC(=O)C1=C1SC(N2CCOCC2)C(N2CCOCC2)S1 (centres unmarked) [Compound No. 2]
  Hepatic Disorder index: 0.5
  p-GPT(K.U.): 12 K.U.

## CC(=O)OC1SC(=C2C(=O)CC(c3ccco3)CC2=O)SC1N1CCN(C)CC1 (centres unmarked) [Compound No. 46]
  Hepatic Disorder index: 0.2
  p-GPT(K.U.): 205 K.U.

## CCOC(=O)OC1SC(=C2C(=O)CCCC2=O)SC1N(C)C (centres unmarked) [Compound No. 8]
  Hepatic Disorder index: 0
  p-GPT(K.U.): 18 K.U.

## CN(C)C1SC(=C2C(=O)CC(C)(C)CC2=O)SC1O (centres unmarked) [Compound No. 13]
  Hepatic Disorder index: 0.4
  p-GPT(K.U.): 157 K.U.

## CN(C)C1SC(=C2C(=O)CC(C)(C)CC2=O)SC1N(C)C (centres unmarked) [Compound No. 3]
  Hepatic Disorder index: 1.6
  p-GPT(K.U.): 49 K.U.

## CC(=O)OC1SC(=C2C(=O)CC(c3ccc(C)cc3)CC2=O)SC1N(C)C (centres unmarked) [Compound No. 30]
  Hepatic Disorder index: 0.5
  p-GPT(K.U.): 229 K.U.

## Cc1ccc(C2CC(=O)C(=C3SC(O)C(N(C)C)S3)C(=O)C2)o1 (centres unmarked) [Compound No. 47]
  Hepatic Disorder index: 1.6
  p-GPT(K.U.): 430 K.U.

Reference: EP0414952A1, “Dithiolane derivatives” (NIHON NOHYAKU CO., LTD., priority 1989, dated 1991)
